Reference: PubChem BioAssay AID256 (DTP/NCI, 2004)
Values joined by “and” are separate entries in the source; they are usually repeats but may differ in a detail not shown here. Equal entries are not always repeated. Inconclusive results and toxic doses are left out.

Test system: CD2F1 mice, L1210 leukemia ip, survival T/C
Experiment: NCI In Vivo Anticancer Drug Screen. Data for tumor model L1210 Leukemia (intraperitoneal) in CD2F1 (CDF1) mice
Conditions: higher = longer survival
In short: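 Antitumor effect is scored in animals hosting a serially transplanted tumor. Values compare compound-dosed animals against vehicle-only controls as a simple quotient.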

NC(CSC(c1ccccc1)(c1ccccc1)c1ccccc1)C(=O)O (stereo unspecified)
T/C (endpoint: mean survival time, dose: 0.48 mg/kg/injection, schedule: Q03HX024 (oral), vehicle: saline): 103 % of control | T/C (endpoint: mean survival time, dose: 0.94 mg/kg/injection, schedule: Q03HX024 (oral), vehicle: saline): 105 % of control | T/C (endpoint: mean survival time, dose: 1.88 mg/kg/injection, schedule: Q03HX008 (oral), vehicle: saline): 109 % of control | T/C (endpoint: mean survival time, dose: 1.88 mg/kg/injection, schedule: Q03HX024 (oral), vehicle: saline): 109 % of control | T/C (endpoint: mean survival time, dose: 3.9 mg/kg/injection, schedule: Q04DX003 (ip), vehicle: water): 102 % of control | T/C (endpoint: mean survival time, dose: 5.0 mg/kg/injection, schedule: Q03HX024 (ip), vehicle: water): 122 % of control and 106 % of control | T/C (endpoint: mean survival time, dose: 5.9 mg/kg/injection, schedule: Q04DX003 (ip), vehicle: water): 102 % of control | T/C (endpoint: mean survival time, dose: 6.25 mg/kg/injection, schedule: Q01DX009 (sc), vehicle: saline): 101 % of control | T/C (endpoint: mean survival time, dose: 8.8 mg/kg/injection, schedule: Q04DX003 (ip), vehicle: water): 103 % of control | T/C (endpoint: mean survival time, dose: 10.0 mg/kg/injection, schedule: Q01DX009 (ip), vehicle: water): 112 % of control | T/C (endpoint: mean survival time, dose: 10.0 mg/kg/injection, schedule: Q03HX008 (ip), vehicle: water): 120 % of control | T/C (endpoint: mean survival time, dose: 10.0 mg/kg/injection, schedule: Q03HX016 (ip), vehicle: water): 114 % of control | T/C (endpoint: mean survival time, dose: 10.0 mg/kg/injection, schedule: Q03HX024 (ip), vehicle: clinical formulation): 103 % of control | T/C (endpoint: mean survival time, dose: 10.0 mg/kg/injection, schedule: Q03HX024 (ip), vehicle: saline): 112 % of control | T/C (endpoint: mean survival time, dose: 10.0 mg/kg/injection, schedule: Q03HX024 (ip), vehicle: water): 151 % of control | T/C (endpoint: mean survival time, dose: 12.5 mg/kg/injection, schedule: Q01DX009 (sc), vehicle: saline): 107 % of control | T/C (endpoint: mean survival time, dose: 13.2 mg/kg/injection, schedule: Q04DX003 (ip), vehicle: water): 123 % of control | T/C (endpoint: mean survival time, dose: 15.0 mg/kg/injection, schedule: Q01DX005 (oral), vehicle: saline): 98 % of control | T/C (endpoint: mean survival time, dose: 15.0 mg/kg/injection, schedule: Q01DX009 (oral), vehicle: saline): 116 % of control | T/C (endpoint: mean survival time, dose: 15.0 mg/kg/injection, schedule: Q03HX008 (oral), vehicle: saline): 155 % of control | T/C (endpoint: mean survival time, dose: 15.0 mg/kg/injection, schedule: Q03HX024 (oral), vehicle: saline): 115 % of control | T/C (endpoint: mean survival time, dose: 20.0 mg/kg/injection, schedule: Q01DX009 (sc), vehicle: water): 123 % of control | T/C (endpoint: mean survival time, dose: 20.0 mg/kg/injection, schedule: Q03HX008 (ip), vehicle: water): 123 % of control | T/C (endpoint: mean survival time, dose: 20.0 mg/kg/injection, schedule: Q03HX024 (ip), vehicle: clinical formulation): 108 % of control | T/C (endpoint: mean survival time, dose: 20.0 mg/kg/injection, schedule: Q03HX024 (ip), vehicle: saline): 116 % of control | T/C (endpoint: mean survival time, dose: 20.0 mg/kg/injection, schedule: Q04DX003 (ip), vehicle: water): 123 % of control | T/C (endpoint: mean survival time, dose: 30.0 mg/kg/injection, schedule: Q01DX005 (oral), vehicle: saline): 100 % of control | T/C (endpoint: mean survival time, dose: 30.0 mg/kg/injection, schedule: Q01DX009 (oral), vehicle: saline): 106 % of control | T/C (endpoint: mean survival time, dose: 30.0 mg/kg/injection, schedule: Q04DX003 (oral), vehicle: saline): 101 % of control | T/C (endpoint: mean survival time, dose: 40.0 mg/kg/injection, schedule: Q03HX024 (ip), vehicle: clinical formulation): 121 % of control | T/C (endpoint: mean survival time, dose: 40.0 mg/kg/injection, schedule: Q03HX024 (ip), vehicle: water): 92 % of control | T/C (endpoint: mean survival time, dose: 45.0 mg/kg/injection, schedule: Q04DX003 (ip), vehicle: water): 114 % of control | T/C (endpoint: mean survival time, dose: 50.0 mg/kg/injection, schedule: Q01DX001 (sc), vehicle: saline): 120 % of control | T/C (endpoint: mean survival time, dose: 60.0 mg/kg/injection, schedule: Q01DX005 (oral), vehicle: saline): 111 % of control | T/C (endpoint: mean survival time, dose: 60.0 mg/kg/injection, schedule: Q04DX003 (oral), vehicle: saline): 106 % of control | T/C (endpoint: mean survival time, dose: 80.0 mg/kg/injection, schedule: Q01DX001 (ip), vehicle: water): 104 % of control | T/C (endpoint: mean survival time, dose: 80.0 mg/kg/injection, schedule: Q01DX009 (oral), vehicle: water): 157 % of control | T/C (endpoint: mean survival time, dose: 80.0 mg/kg/injection, schedule: Q03HX024 (ip), vehicle: clinical formulation): 150 % of control | T/C (endpoint: mean survival time, dose: 80.0 mg/kg/injection, schedule: Q03HX024 (ip), vehicle: saline): 154 % of control | T/C (endpoint: mean survival time, dose: 80.0 mg/kg/injection, schedule: Q04DX003 (ip), vehicle: water): 121 % of control | T/C (endpoint: mean survival time, dose: 80.0 mg/kg/injection, schedule: Q08DX002 (ip), vehicle: saline): 102 % of control | T/C (endpoint: mean survival time, dose: 100.0 mg/kg/injection, schedule: Q01DX001 (sc), vehicle: saline): 115 % of control | T/C (endpoint: mean survival time, dose: 120.0 mg/kg/injection, schedule: Q01DX001 (oral), vehicle: saline): 102 % of control | T/C (endpoint: mean survival time, dose: 120.0 mg/kg/injection, schedule: Q01DX005 (oral), vehicle: saline): 123 % of control | T/C (endpoint: mean survival time, dose: 120.0 mg/kg/injection, schedule: Q04DX003 (oral), vehicle: saline): 108 % of control | T/C (endpoint: mean survival time, dose: 160.0 mg/kg/injection, schedule: Q01DX001 (oral), vehicle: water): 115 % of control | T/C (endpoint: mean survival time, dose: 160.0 mg/kg/injection, schedule: Q03HX024 (ip), vehicle: clinical formulation): 152 % of control | T/C (endpoint: mean survival time, dose: 160.0 mg/kg/injection, schedule: Q03HX024 (ip), vehicle: saline): 234 % of control | T/C (endpoint: mean survival time, dose: 200.0 mg/kg/injection, schedule: Q01DX009 (sc), vehicle: saline): 86 % of control | T/C (endpoint: mean survival time, dose: 240.0 mg/kg/injection, schedule: Q01DX001 (oral), vehicle: saline): 107 % of control | T/C (endpoint: mean survival time, dose: 240.0 mg/kg/injection, schedule: Q01DX009 (oral), vehicle: saline): 103 % of control | T/C (endpoint: mean survival time, dose: 240.0 mg/kg/injection, schedule: Q04DX003 (oral), vehicle: saline): 111 % of control | T/C (endpoint: mean survival time, dose: 320.0 mg/kg/injection, schedule: Q03HX024 (ip), vehicle: saline): 86 % of control | T/C (endpoint: mean survival time, dose: 400.0 mg/kg/injection, schedule: Q01DX001 (sc), vehicle: saline): 108 % of control | T/C (endpoint: mean survival time, dose: 480.0 mg/kg/injection, schedule: Q01DX001 (oral), vehicle: saline): 107 % of control | T/C (endpoint: mean survival time, dose: 480.0 mg/kg/injection, schedule: Q01DX005 (oral), vehicle: saline): 97 % of control | T/C (endpoint: mean survival time, dose: 480.0 mg/kg/injection, schedule: Q01DX009 (oral), vehicle: saline): 96 % of control | T/C (endpoint: mean survival time, dose: 640.0 mg/kg/injection, schedule: Q01DX001 (oral), vehicle: water): 108 % of control | T/C (endpoint: mean survival time, dose: 640.0 mg/kg/injection, schedule: Q01DX001 (sc), vehicle: water): 180 % of control | T/C (endpoint: mean survival time, dose: 800.0 mg/kg/injection, schedule: Q01DX001 (sc), vehicle: saline): 106 % of control | T/C (endpoint: mean survival time, dose: 960.0 mg/kg/injection, schedule: Q04DX003 (oral), vehicle: saline): 150 % of control | T/C (endpoint: median survival time, dose: 3.9 mg/kg/injection, schedule: Q01DX009 (ip), vehicle: clinical formulation): 91 % of control | T/C (endpoint: median survival time, dose: 5.0 mg/kg/injection, schedule: Q03HX024 (ip), vehicle: water): 111 % of control | T/C (endpoint: median survival time, dose: 7.8 mg/kg/injection, schedule: Q01DX009 (ip), vehicle: clinical formulation): 94 % of control | T/C (endpoint: median survival time, dose: 10.0 mg/kg/injection, schedule: Q01DX009 (ip), vehicle: water): 88 % of control | T/C (endpoint: median survival time, dose: 10.0 mg/kg/injection, schedule: Q03HX024 (ip), vehicle: water): 122 % of control | T/C (endpoint: median survival time, dose: 10.0 mg/kg/injection, schedule: Q04DX003 (ip), vehicle: water): 111 % of control | T/C (endpoint: median survival time, dose: 15.6 mg/kg/injection, schedule: Q01DX009 (ip), vehicle: clinical formulation): 121 % of control | T/C (endpoint: median survival time, dose: 20.0 mg/kg/injection, schedule: Q01DX009 (oral), vehicle: water): 111 % of control | T/C (endpoint: median survival time, dose: 20.0 mg/kg/injection, schedule: Q03HX024 (ip), vehicle: water): 150 % of control | T/C (endpoint: median survival time, dose: 20.0 mg/kg/injection, schedule: Q04DX003 (ip), vehicle: water): 88 % of control | T/C (endpoint: median survival time, dose: 31.3 mg/kg/injection, schedule: Q01DX009 (ip), vehicle: clinical formulation): 118 % of control | T/C (endpoint: median survival time, dose: 31.3 mg/kg/injection, schedule: Q01DX009 (oral), vehicle: clinical formulation): 121 % of control | T/C (endpoint: median survival time, dose: 31.3 mg/kg/injection, schedule: Q03HX008 (oral), vehicle: clinical formulation): 121 % of control | T/C (endpoint: median survival time, dose: 31.3 mg/kg/injection, schedule: Q03HX024 (oral), vehicle: clinical formulation): 88 % of control | T/C (endpoint: median survival time, dose: 40.0 mg/kg/injection, schedule: Q01DX009 (ip), vehicle: water): 88 % of control | T/C (endpoint: median survival time, dose: 40.0 mg/kg/injection, schedule: Q01DX009 (oral), vehicle: water): 111 % of control | T/C (endpoint: median survival time, dose: 40.0 mg/kg/injection, schedule: Q04DX003 (ip), vehicle: water): 88 % of control | T/C (endpoint: median survival time, dose: 62.5 mg/kg/injection, schedule: Q03HX008 (oral), vehicle: clinical formulation): 164 % of control | T/C (endpoint: median survival time, dose: 62.5 mg/kg/injection, schedule: Q03HX016 (oral), vehicle: clinical formulation): 90 % of control | T/C (endpoint: median survival time, dose: 80.0 mg/kg/injection, schedule: Q04DX003 (ip), vehicle: water): 105 % of control | T/C (endpoint: median survival time, dose: 125.0 mg/kg/injection, schedule: Q01DX009 (oral), vehicle: clinical formulation): 114 % of control | T/C (endpoint: median survival time, dose: 125.0 mg/kg/injection, schedule: Q03HX016 (oral), vehicle: clinical formulation): 90 % of control | T/C (endpoint: median survival time, dose: 125.0 mg/kg/injection, schedule: Q04DX003 (oral), vehicle: clinical formulation): 151 % of control | T/C (endpoint: median survival time, dose: 160.0 mg/kg/injection, schedule: Q01DX009 (oral), vehicle: water): 116 % of control | T/C (endpoint: median survival time, dose: 250.0 mg/kg/injection, schedule: Q01DX001 (oral), vehicle: clinical formulation): 119 % of control | T/C (endpoint: median survival time, dose: 250.0 mg/kg/injection, schedule: Q04DX003 (oral), vehicle: clinical formulation): 184 % of control | T/C (endpoint: median survival time, dose: 250.0 mg/kg/injection, schedule: Q08DX002 (oral), vehicle: clinical formulation): 151 % of control | T/C (endpoint: median survival time, dose: 500.0 mg/kg/injection, schedule: Q01DX001 (oral), vehicle: clinical formulation): 98 % of control | T/C (endpoint: median survival time, dose: 500.0 mg/kg/injection, schedule: Q04DX003 (oral), vehicle: clinical formulation): 98 % of control | T/C (endpoint: median survival time, dose: 500.0 mg/kg/injection, schedule: Q08DX002 (oral), vehicle: clinical formulation): 191 % of control
